# Results taken from PubChem BioAssay AID1963827 (Molecular Pharmacology Branch, DTP, NCI, 2024).
# System: 994946-033-R-J1-PDC complex spheroid viability
# Test: Anticancer human tumor 994946-033-R-J1-PDC patient-derived melanoma cell line growth inhibition [POLQ]
# Conditions: for IC50: curve of first compound; for viability, T/C: stronger effect = lower value
# In short: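 Complex spheroid viability model combining PDC tumour cells with endothelial (HUVEC) and MSC stromal cells. Novobiocin, ART-558 or RP6685 were tested singly and in combination with standard and investigational anticancer drugs. Each was titrated in half-log steps from near clinical Cmax, or from 10 microM where Cmax was unknown.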
# [1] = second compound 0.0316 µM, first compound 0.0316 µM
# [2] = second compound 0.0316 µM, first compound 0.1 µM
# [3] = second compound 0.0316 µM, first compound 0.316 µM
# [4] = second compound 0.0316 µM, first compound 1 µM
# [5] = second compound 0.0316 µM, first compound 3.16 µM
# [6] = second compound 0.0316 µM, first compound 10 µM
# [7] = second compound 0.1 µM, first compound 0.0316 µM
# [8] = second compound 0.1 µM, first compound 0.1 µM
# [9] = second compound 0.1 µM, first compound 0.316 µM
# [10] = second compound 0.1 µM, first compound 1 µM
# [11] = second compound 0.1 µM, first compound 3.16 µM
# [12] = second compound 0.1 µM, first compound 10 µM
# [13] = second compound 0.316 µM, first compound 0.0316 µM
# [14] = second compound 0.316 µM, first compound 0.1 µM
# [15] = second compound 0.316 µM, first compound 0.316 µM
# [16] = second compound 0.316 µM, first compound 1 µM
# [17] = second compound 0.316 µM, first compound 3.16 µM
# [18] = second compound 0.316 µM, first compound 10 µM
# [19] = second compound 1 µM, first compound 0.0316 µM
# [20] = second compound 1 µM, first compound 0.1 µM
# [21] = second compound 1 µM, first compound 0.316 µM
# [22] = second compound 1 µM, first compound 1 µM
# [23] = second compound 1 µM, first compound 3.16 µM
# [24] = second compound 1 µM, first compound 10 µM
# [25] = second compound 3.16 µM, first compound 0.0316 µM
# [26] = second compound 3.16 µM, first compound 0.1 µM
# [27] = second compound 3.16 µM, first compound 0.316 µM
# [28] = second compound 3.16 µM, first compound 1 µM
# [29] = second compound 3.16 µM, first compound 3.16 µM
# [30] = second compound 3.16 µM, first compound 10 µM
# [31] = second compound 10 µM, first compound 0.0316 µM
# [32] = second compound 10 µM, first compound 0.1 µM
# [33] = second compound 10 µM, first compound 0.316 µM
# [34] = second compound 10 µM, first compound 1 µM
# [35] = second compound 10 µM, first compound 3.16 µM
# [36] = second compound 10 µM, first compound 10 µM
# 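Also: spheroids exposed to drugs for 7 days.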
# 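For viability, T/C in this document: 100% = DMSO vehicle treated spheroids.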
smiles,measurement,setting,value
O=c1[nH]cc(F)c(=O)[nH]1 + Nc1ccc(C#CCN(C(=O)Cc2ncc(C(F)(F)F)cc2C(F)(F)F)c2ccc(F)cc2)nn1,IC50,second compound 0.0316 µM,> 10 µM
same,IC50,second compound 0.1 µM,> 10 µM
same,IC50,second compound 0.316 µM,> 10 µM
same,IC50,second compound 1 µM,> 10 µM
same,IC50,second compound 3.16 µM,5.54 µM
same,IC50,second compound 10 µM,> 10 µM
same,"viability, T/C",[1],104%
same,"viability, T/C",[2],114%
same,"viability, T/C",[3],92.5%
same,"viability, T/C",[4],67.9%
same,"viability, T/C",[5],62.8%
same,"viability, T/C",[6],54%
same,"viability, T/C",[7],101%
same,"viability, T/C",[8],75.6%
same,"viability, T/C",[9],93.7%
same,"viability, T/C",[10],81%
same,"viability, T/C",[11],60.1%
same,"viability, T/C",[12],68.9%
same,"viability, T/C",[13],81.9%
same,"viability, T/C",[14],81.1%
same,"viability, T/C",[15],104%
same,"viability, T/C",[16],70.8%
same,"viability, T/C",[17],76.1%
same,"viability, T/C",[18],63.1%
same,"viability, T/C",[19],100%
same,"viability, T/C",[20],83.1%
same,"viability, T/C",[21],116%
same,"viability, T/C",[22],61.1%
same,"viability, T/C",[23],66.8%
same,"viability, T/C",[24],50.8%
same,"viability, T/C",[25],97.2%
same,"viability, T/C",[26],112%
same,"viability, T/C",[27],81.2%
same,"viability, T/C",[28],85.3%
same,"viability, T/C",[29],49.2%
same,"viability, T/C",[30],47%
same,"viability, T/C",[31],111%
same,"viability, T/C",[32],51.9%
same,"viability, T/C",[33],86.9%
same,"viability, T/C",[34],67.6%
same,"viability, T/C",[35],75.3%
same,"viability, T/C",[36],42.4%
CCCS(=O)(=O)Nc1ccc(F)c(C(=O)c2c[nH]c3ncc(-c4ccc(Cl)cc4)cc23)c1F + COC1C(OC(N)=O)C(O)C(Oc2ccc3c(O)c(NC(=O)c4ccc(O)c(CC=C(C)C)c4)c(=O)oc3c2C)OC1(C)C,IC50,second compound 0.0316 µM,6.68 µM
same,IC50,second compound 0.1 µM,5.99 µM
same,IC50,second compound 0.316 µM,5.14 µM
same,IC50,second compound 1 µM,6.12 µM
same,IC50,second compound 3.16 µM,4.85 µM
same,IC50,second compound 10 µM,6.15 µM
same,"viability, T/C",[1],128%
same,"viability, T/C",[2],113%
same,"viability, T/C",[3],99.6%
same,"viability, T/C",[4],93.4%
same,"viability, T/C",[5],109%
same,"viability, T/C",[6],18.3%
same,"viability, T/C",[7],102%
same,"viability, T/C",[8],98.7%
same,"viability, T/C",[9],89.3%
same,"viability, T/C",[10],105%
same,"viability, T/C",[11],106%
same,"viability, T/C",[12],9.61%
same,"viability, T/C",[13],104%
same,"viability, T/C",[14],101%
same,"viability, T/C",[15],97.3%
same,"viability, T/C",[16],121%
same,"viability, T/C",[17],75.3%
same,"viability, T/C",[18],15.4%
same,"viability, T/C",[19],90.5%
same,"viability, T/C",[20],93.4%
same,"viability, T/C",[21],90.4%
same,"viability, T/C",[22],108%
same,"viability, T/C",[23],91.3%
same,"viability, T/C",[24],19.2%
same,"viability, T/C",[25],113%
same,"viability, T/C",[26],111%
same,"viability, T/C",[27],104%
same,"viability, T/C",[28],93.8%
same,"viability, T/C",[29],67.5%
same,"viability, T/C",[30],20.2%
same,"viability, T/C",[31],102%
same,"viability, T/C",[32],107%
same,"viability, T/C",[33],112%
same,"viability, T/C",[34],94.2%
same,"viability, T/C",[35],99.9%
same,"viability, T/C",[36],13.5%
